Reference: patent publication US7816406B2, “Quinolone analogs” (Cylene Pharmaceuticals, Inc., priority 2004, dated 2010)
Where two headings read alike, the source gives them in different places.

How the values were obtained:
c-Myc template DNA = test: Quadruplex binding assay (STOP / Taq polymerase arrest, capillary electrophoresis); assay type: biochemical; details: concentration at which 50% of the DNA was arrested (arrested:full-length 1:1)
Experimental: Generally, a 5′-fluorescent-labeled (FAM) primer (P45, 15 nM) was mixed with template DNA (15 nM) in a Tris-HCL buffer (15 mM Tris, pH 7.5) containing 10 mM MgCl2, 0.1 mM EDTA and 0.1 mM mixed deoxynucleotide triphosphates (dNTP's). In one example, the FAM-P45 primer (5′ -6FAM-[…] CAATT-3′) (SEQ ID NO. 17) and the c-Myc template DNA (5′-[…] […] […]-3′) (SEQ ID NO. 18) were synthesized and HPLC purified by Applied Biosystems. The mixture was denatured at 95° C. for 5 minutes and, after cooling down to room temperature, was incubated at 37° C. for 15 minutes.
After cooling down to room temperature, 1 mM KCl2 and the test compound (various concentrations) were added and the mixture incubated for 15 minutes at room temperature. The primer extension was performed by adding 10 mM KCl and Taq DNA Polymerase (2.5 U/reaction, Promega) and incubating at 70° C. for 30 minutes. The reaction was stopped by adding 1 μl of the reaction mixture to 10 μl Hi-Di Formamide mixed and 0.25 μl LIZ120 size standard. Hi-Di Formamide and LIZ120 size standard were purchased from Applied Biosystems. The partially extended quadruplex arrest product was between 61 or 62 bases long and the full-length extended product was 99 bases long. The products were separated and analyzed using capillary electrophoresis. Capillary electrophoresis was performed using an ABI PRISM 3100-Avant Genetic Analyzer. The assay was performed using compounds described above and results are shown in Table 1. μM concentrations reported in Table 1 are concentrations at which 50% of the DNA was arrested in the assay (ie., the ratio of shorter partially extended DNA (arrested DNA) to full-length extended DNA is 1:1).
Stop Assays. Stop assays are high throughput, first-pass screens for detecting drugs that bind to and stabilize the target G-quadruplex. Generally, DNA template oligonucleotide is created, which contains the nucleotide sequence of the “target” quadruplex against which drug screening is desired. A fluorescently labeled primer DNA is then annealed to the 3′ end of the template DNA. A DNA polymerase such as Taq polymerase is then introduced to synthesize a complementary strand of DNA by extending from the fluorescently labeled primer. When the progress of the Taq polymerase is unhindered, it synthesizes a full-length copy of the template. […] If, however, the test drug selectively binds to and stabilizes the quadruplex, the progress of polymerase arrests only at the quadruplex, and a characteristic “Stop Product” is synthesized.
Compounds are initially screened at a single concentration, and “hits” are re-assayed over a range of doses to determine an IC50 value (i.e., the concentration of drug required to produce an arrest product/full-length product ratio of 1:1). These products are visualized by capillary electrophoresis.

HCT-116 = test: MTS cell proliferation assay, HCT-116; assay type: cell-based
Experimental: (§1) MTS assays. Antiproliferative effects of anticancer drugs are tested by the CellTiter 96 AQueous assay (Promega, WI), which is a colorimetric assay for determining the number of viable cells. (See, e.g., Wang, L., et al., Methods Cell Sci (1996) 18:249-255). Generally, cells (2,000 to 5,000 cells/well) are seeded on 96 well flat bottom plates (Corning, NY) in 100 μl of culture medium without any anticancer drug on day 0, and the culture medium is exchanged for that contained anticancer drugs at various concentrations on day 1. After incubation for 3 days under normal growth conditions (on day 4), the monolayers are washed once in PBS, and the medium is switched to 100 μl of PBS in each of the 96 well plate. After mixing MTS and PMS at the ratio of 20:1, 20 μl of MTS/PMS solution is added to each of the 96 well plate and incubated for 4 hours in a humidified atmosphere of 5% CO2 at 37° C. The absorbance is read at 490 nm using FLUOstar Galaxy 96 well plate reader (BMG Labtechnologies, Germany).

HCT116 cells = test: HCT-116 colorectal cancer xenograft model, intravenous dosing; assay type: in vivo; details: IV bolus, nu/nu mice
Experimental: 6 wk old female nu/nu mice were purchased from Taconic Farms, Germantown N.Y. They were injected with 5×10^6 HCT116 cells SQ in right flank. When tumors reached sufficient size for study, they were randomized into groups. • Vehicle: 242.9 mm^3 • Test compound: 251.0 mm^3
Animals dosed by bolus injection—IV through lateral tail vein for five consecutive days. Caliper measurements were taken on Day 1, 4, 6.
6 wk old female nu/nu mice were purchased from Simonsen Labs, Gilroy, Calif. They were injected with 5×10^6 HCT116 cells SQ in right flank. When tumors reached sufficient size for study, they were randomized into groups. • Vehicle: 101.9 mm^3 • Test compound: 152.8 mm^3
Animals dosed by bolus injection—IV through lateral tail vein for fourteen consecutive days. Caliper measurements were taken on Day 1, 3, 5, 7, 10, 12, 14, and 18.
6 wk old female nu/nu mice were purchased from Simonsen Labs, Gilroy, Calif. They were injected with 5×10^6 HCT116 cells SQ in right flank. When tumors reached sufficient size for study, they were randomized into groups. • Vehicle: 114.6 mm^3 • Test compound: 106.1 mm^3 • Test compound: 84.1 mm^3
Animals dosed by bolus injection—IV through lateral tail vein for fourteen consecutive days. Caliper measurements were taken on Day 1, 4, 6, 8, 12, and 15.
6 wk old female nu/nu mice were purchased from Taconic Farms, Germantown N.Y. They were injected with 5×10^6 HCT116 cells SQ in right flank. When tumors reached sufficient size for study, they were randomized into groups. • Vehicle: 242.9 mm^3 • Test compound: 252.1 mm^3
Animals dosed by bolus injection—IV through lateral tail vein for five consecutive days. Caliper measurements were taken on Day 1, 4, and 6.
6 wk old female nu/nu mice were purchased from Taconic Farms, Germantown N.Y. They were injected with 5×10^6 HCT116 cells SQ in right flank. When tumors reached sufficient size for study, they were randomized into groups. • Vehicle: 242.9 mm^3 • Test compound: 236.1 mm^3
6 wk old female nu/nu mice were purchased from Taconic Farms, Germantown N.Y. They were injected with 5×10^6 HCT116 cells SQ in right flank. When tumors reached sufficient size for study, they were randomized into groups. • Vehicle: 242.9 mm^3 • Test compound: 254.7 mm^3
6 wk old female nu/nu mice were purchased from Taconic Farms, Germantown N.Y. They were injected with 5×10^6 HCT116 cells SQ in right flank. When tumors reached sufficient size for study, they were randomized into groups.
Animals dosed by bolus injection—IV through lateral tail vein for nine consecutive days. Caliper measurements were taken on Day 1, 3, 5, 7, and 9.
Animals dosed by bolus injection—IV through lateral tail vein for seven consecutive days. Caliper measurements were taken on Day 1, 3, 5, and 7.

MiaPaca = test: MTS cell proliferation assay, MiaPaca; assay type: cell-based; details: Table 1C
Experimental: as §1

[1] = Homo sapiens, HCT-116, HCT-116, Table 1A, read-out: HCT-116 MTs
[2] = 25 mg/kg, five consecutive days
[3] = 12.5 mg/kg, fourteen consecutive days
[4] = different dose levels, fourteen consecutive days
[5] = Homo sapiens, MIA PaCa-2, M CELL MiaPaca
[6] = Homo sapiens, HCT-116, M CELL HCT-116, Table 1C, read-out: M DATA
[7] = 25 and 12.5 mg/kg, seven consecutive days

| Compound | IC50 (c-Myc template DNA) [µM] | IC50 (HCT-116; [1]) [µM] | further results |
| --- | --- | --- | --- |
| CN1CCCC1CCNC(=O)c1c(=O)c2cc(SCCc3cnccn3)ccc2n2c1sc1ccccc12 (centres unmarked) | 10 | 6.1 |  |
| COc1ccc2c(c1)sc1c(C(=O)NCCC3CCCN3C)c(=O)c3cc(F)c(SCCc4cnccn4)cc3n12 (centres unmarked) | 9.3 | 5.7 |  |
| CN1CCCC1CCNC(=O)c1c(=O)c2cc(F)c(SCCc3cnccn3)cc2n2c1sc1cc(Cl)ccc12 (centres unmarked) | 1.7 | 3.57 |  |
| CC(C)N1CCN(c2cc3c(cc2F)c(=O)c(C(=O)NCCN2CCCC2)c2sc4ccccc4n23)CC1 | 9 | 0.3 |  |
| CC(C)N1CCN(c2cc3c(=O)c(C(=O)NCCC4CCCN4C)c4sc5ccccc5n4c3cc2Cl)CC1 (centres unmarked) | > 15 |  |  |
| Nc1ccccc1Sc1c(F)cc2c(=O)c(C(=O)NCCN3CCCC3)c3sc4ccccc4n3c2c1F | 15 | 2.4 |  |
| O=C(NCCN1CCCC1)c1c(=O)c2cc(F)c(N3CCC(c4cnccn4)C3)c(F)c2n2c1sc1ccccc12 (centres unmarked) | 11.6 | 3.5 |  |
| CN1CCCC1CCNC(=O)c1c(=O)c2cc(F)c(N3CCC(c4cnccn4)C3)cc2n2c1sc1ccccc12 (centres unmarked) | 1.3 | 3.4 |  |
| CN1CCCC1CCNC(=O)c1c(=O)c2cc(F)c(N3CCC(c4cnccn4)C3)cc2n2c3ccccc3n(C)c12 (centres unmarked) | 10.5 | 0.7 |  |
| Cn1c2ccccc2n2c3cc(N4CCC(c5cnccn5)C4)c(F)cc3c(=O)c(C(=O)NCCN3CCCC3)c12 (centres unmarked) | 8.2 | 0.1 |  |
| CN1CCCC1CCNC(=O)c1c(=O)c2cc(F)c(SCCc3cnccn3)cc2n2c3ccccc3n(C)c12 (centres unmarked) | 15 | 2.3 |  |
| Cn1c2ccccc2n2c3cc(SCCc4cnccn4)c(F)cc3c(=O)c(C(=O)NCCN3CCCC3)c12 | 15 | 0.3 |  |
| Cn1c2ccccc2n2c3cc(F)c(F)cc3c(=O)c(C(=O)NCCN3CCCC3)c12 | 15 | 0.3 |  |
| CC(C)N1CCN(c2cc3c(cc2F)c(=O)c(C(=O)NCCC2CCCN2C)c2n(C)c4ccccc4n32)CC1 (centres unmarked) | 15 | 0.3 |  |
| CC(C)N1CCN(c2cc3c(cc2F)c(=O)c(C(=O)NCCN2CCCC2)c2n(C)c4ccccc4n32)CC1 | > 15 |  |  |
| CC(C)N1CCN(c2nc3c(cc2F)c(=O)c(C(=O)NCCC2CCCN2C)c2sc4ccc(Cl)cc4n23)CC1 (centres unmarked) |  |  | activity in HCT116 xenograft (HCT116 cells; [2]): activity; adverse effects (HCT116 cells; [2]): no adverse effects observed |

| Compound | IC50 (c-Myc template DNA) [µM] | IC50 (HCT-116; [1]) [µM] | further results |
| --- | --- | --- | --- |
| CC(=O)N1CCN(c2ccc3c(=O)c(C(=O)NCCN4CCCC4)c4n(C)c5ccccc5n4c3n2)CC1 |  |  | activity in HCT116 xenograft (HCT116 cells; [3]): activity; adverse effects (HCT116 cells; [3]): no adverse effects observed; activity in HCT116 xenograft (HCT116 cells; [4]): dose dependent activity; adverse effects (HCT116 cells; [4]): no adverse effects observed |
| NC1CCN(c2nc3c(cc2F)c(=O)c(C(=O)NCCN2CCCC2)c2sc4ccccc4n23)C1 (centres unmarked) |  |  | activity in HCT116 xenograft (HCT116 cells; [2]): activity; adverse effects (HCT116 cells; [2]): no adverse effects observed |
| CN1CCCC1CCNC(=O)c1c(=O)c2cc(F)c(SCCc3cnccn3)cc2n2c1sc1ccccc12 (centres unmarked) [drawing 14] | 7.2 | 1.1 |  |
| O=C(NCCN1CCCC1)c1c(=O)c2cc(F)c(SCCc3cnccn3)cc2n2c1sc1ccccc12 [drawing 15] | 5.8 | 0.57 |  |
| O=C(NCCN1CCCC1)c1c(=O)c2c(N3CCCC3)ccnc2n2c1sc1ccccc12 [drawing 145] |  |  | IC50 (MiaPaca; [5]): 2.3 µM |
| CC(=O)NC1CCN(c2ccnc3c2c(=O)c(C(=O)NCCN2CCCC2)c2sc4ccccc4n23)C1 (centres unmarked) [drawing 147] |  |  | IC50 (MiaPaca; [5]): 0.7 µM |
| O=C(NCCN1CCCC1)c1c(=O)c2cnc(N3CCCC3)nc2n2c1sc1ccc(Cl)cc12 [drawing 212] |  |  | IC50 (HCT-116; M CELL HCT-116, Table 1C, read-out: M DATA): 0.21 µM |
| O=C(NCCN1CCCC1)c1c(=O)c2cnc(N3CCCC3)nc2n2c1sc1ccc(Cl)cc12 [drawing 213] |  |  | IC50 (MiaPaca; M CELL MiaPaca): 0.3 µM |
| O=C1CN(c2ccnc3c2c(=O)c(C(=O)NCCN2CCOCC2)c2sc4ccccc4n23)CCN1 [drawing 234] |  |  | IC50 (MiaPaca; [5]): 6.6 µM |
| O=C(NCCN1CCCC1)c1c(=O)c2ccc(NCCN3CCOCC3)nc2n2c1sc1ccccc12 [drawing 307] |  |  | IC50 (HCT-116; [6]): 0.02 µM |
| CN(C)CCN(C)c1ccc2c(=O)c(C(=O)NCCC3CCCN3C)c3sc4ccccc4n3c2n1 (centres unmarked) [drawing 385] |  |  | IC50 (HCT-116; [6]): 0.02 µM |
| CC(=O)N1CCN(c2ncc3c(=O)c(C(=O)NCCN4CCCC4)c4sc5ccccc5n4c3n2)CC1 [drawing 653] |  |  | activity in HCT116 xenograft (HCT116 cells; [2]): activity; adverse effects (HCT116 cells; [2]): no adverse effects observed |
| O=C(NCCN1CCCC1)c1c(=O)c2cnc(N3CCCC3)nc2n2c1sc1ccccc12 [drawing 654] |  |  | activity in HCT116 xenograft (HCT116 cells; [2]): activity; adverse effects (HCT116 cells; [2]): no adverse effects observed |
| CC(=O)N1CCN(c2nc3c(cc2F)c(=O)c(C(=O)NCCN2CCCC2)c2n(C)c4ccccc4n32)CC1 [drawing 655] |  |  | adverse effects (HCT116 cells; 25 and 12.5 mg/kg, nine consecutive days): no adverse effects observed; activity in HCT116 xenograft (HCT116 cells; high dose (25 mg/kg), nine consecutive days): limited activity; activity in HCT116 xenograft (HCT116 cells; mid dose (12.5 mg/kg), nine consecutive days): no activity |
| CN1CCCC1CCNC(=O)c1c(=O)c2ccc(N3CCC(c4cnccn4)C3)nc2n2c1sc1ccc(Cl)cc12 (centres unmarked) [drawing 656] |  |  | activity in HCT116 xenograft (HCT116 cells; [7]): excellent activity with minimal dose dependency; adverse effects (HCT116 cells; [7]): No adverse effects were observed |
